From publication PMC10107299, “Neutralizing the Impact of the Virulence Factor LecA from Pseudomonas aeruginosa on Human Cells with New Glycomimetic Inhibitors” (Angewandte Chemie (International Ed. in English), 2023)
Like-named read-outs stand apart in the source and are kept apart here.

Columns and labels:
[1] = In vitro metabolic stability, mouse liver microsomes; assay type: in vitro ADME; conditions: N=3, read-out: CLint MLM
Procedure: (§1) Acetonitrile and caffeine were dispensed using a Mantis Formulatrix. Then samples were centrifuged for 20 min at 2.270 x g at 4 °C and the supernatants were transferred to 96-well Greiner V-bottom plates. Peak areas of each compound and of the internal standard were analyzed using the MultiQuant 3.0 software (AB Sciex). Peak areas of the respective compound were normalized to the internal standard peak area and to the respective peak areas at time point 0 min: (C/D)/(A/B) with A: peak area of the compound at time point 0 min, B: peak area of the internal standard at time point 0 min, C: peak area of the compound at the respective time point, D: peak area of the internal standard at the respective time point.
In vitro metabolic stability assay
Liver microsomes (mouse and human, Thermo Fisher) were thawed slowly on ice. 20 mg/mL of microsomes, 2 µL of a 100 µM solution of every compound and 183 µL of 100 mM phosphate buffer were incubated 5 min at 37 °C in a water bath. Reactions were initiated using 10 µL of 20 mM NADPH (CarlRoth). Samples were incubated in three replicates at 37 °C under gentle agitation at 150 rpm. At 0, 5, 15, 30, and 60 min, reactions were terminated by the addition of 180 µL acetonitrile using a Mantis Formulatrix dispenser. Samples were vortexed for 5 min using an Eppendorf MixMate vortex mixer and centrifuged at 2.270 x g for 20 min at 4 °C. The supernatants were transferred to 96-well Greiner V-bottom plates, sealed and analyzed according to the section HPLC-MS analysis. Peak areas of the respective time point of the compounds were normalized to the peak area at time point 0 min. Then half-life was calculated using linear regression (Microsoft Excel). Clint [µL/min/mg protein] was calculated using the following formula: […]

in vitro = in vitro ADME; conditions: pH 7.4, 37 °C
Procedure: Then, we analyzed the stability of the compounds in plasma. […] The observed increase in plasma stability of the tested amide derivatives compared to bisacylhydrazone 14 supports our design hypothesis for the isosteric replacement of the bisacylhydrazone linking motif. […]
Each compound dissolved in DMSO was added to mouse plasma (pH 7.4, 37 °C) or to human plasma (pH 7.4, 37 °C) to yield a final concentration of 1 µM. In addition, procaine and procainamide (dissolved in DMSO) were added to mouse plasma or to human plasma (pH 7.4, 37 °C) to yield a final concentration of 1 µM. Procaine served as positive control as it is unstable in mouse plasma. Procainamide served as negative control as it is stable in mouse plasma. The samples were incubated for 0 min, 15 min, 30 min, 60 min, 90 min, 120 min and 240 min at 37 °C. At each time point, 10 µl of the respective sample was extracted with 90 µL acetonitrile containing 12.5 ng/mL caffeine as internal standard for 5 min at 2000 rpm on a MixMate vortex […]
as §1, with “mixer (Eppendorf). Acetonitrile” for “Acetonitrile”, “point. […]” for “point.”
(§2) 2 hours at 800 rpm on an Eppendorf MixMate vortex-mixer. Then samples were withdrawn from the respective chambers. To 25 µL of each dialysis sample, 25 µL of plasma and to 25 µL of plasma sample, 25 µL of dialysis buffer was added. Then 150 µL ice-cold extraction solvent (ACN/H2O (90:10) containing 12.5 ng/mL caffeine as internal standard) was added. Samples were incubated for 30 min on ice. Then samples were centrifuged at 4 °C at 2270 x g for 10 min.

[2] = Plasma protein binding (rapid equilibrium device), murine plasma; assay type: in vitro ADME, mouse; conditions: CD-1, mouse, plasma, read-out: PPB Mouse (converted)
Procedure: as §1, with “mixer (Eppendorf). Acetonitrile” for “Acetonitrile”, “point. […]” for “point.”
Assessment of plasma protein binding
Plasma protein binding was assessed using the rapid equilibrium device (RED) system from ThermoFisher. Compounds were dissolved in DMSO. […]
as §2, with “high plasma protein binding. Compounds were diluted in murine plasma (from CD-1 mice, pooled) or in human plasma (human donors, both genders, pooled) to a final concentration of 1 µM. Dialysis buffer and plasma samples were added to the respective chambers according the manufacturer’s protocol. The RED plate was sealed with a tape and incubated at 37 °C for 2 hours” for “2 hours”
Supernatants were transferred to Greiner V-bottom 96-well plates and sealed with a tape. The […]
percentage of bound compound was calculated as follows:
(1) % free = (concentration buffer chamber / concentration plasma chamber) *100 […]
Samples were analyzed using an Agilent 1290 Infinity II HPLC system coupled to an AB Sciex QTrap 6500plus mass spectrometer. LC conditions were as follows: column: Agilent […]
Zorbax Eclipse Plus C18, 50x2.1 mm, 1.8 µm; temperature: 30 °C; injection volume: 5 µL per […]
sample; flow rate: 700 µL/min. Samples were run under acidic and buffered conditions.
Solvents for acidic conditions: A1: water + 0.1% formic acid; solvent B1: 95% acetonitrile/5% […]
H2O + 0.1% formic acid; solvents for buffered conditions: A2: 95% water + 5% acetonitrile + […]
5 mM ammonium acetate + 40 µL/L acetic acid; B2: 95% acetonitrile + 5% water + 5 mM […]
ammonium acetate + 40 µL/L acetic acid. The same gradient was applied for acidic and […]
buffered conditions: 99% A at 0 min, 99% A until 1 min, 99% - 0% A from 1 min to 4.0 min, […]
0% A until 5.0 min. Mass transitions for controls and compounds are depicted in the following […]

[3] = human plasma, read-out: Plasma stability t1/2 Human
[4] = mouse plasma, read-out: Plasma stability t1/2 Mouse

| Structure (SMILES) | microsomal CLint at 1 µM [1] [µL/min/mg] | half-life at 1 µM (in vitro; [3]) [h] | half-life at 1 µM (in vitro; [4]) [h] | fraction unbound at 2 h, 1 µM [2] |
| --- | --- | --- | --- | --- |
| O=C(CCc1ccc(O[C@@H]2O[C@H](CO)[C@H](O)[C@H](O)[C@H]2O)cc1)Nc1ccc(OCCOc2ccc(NC(=O)CCc3ccc(O[C@@H]4O[C@H](CO)[C@H](O)[C@H](O)[C@H]4O)cc3)cn2)nc1 [Compound H2] | 6.8 | 3.58 | 1.35 | 0.03 |
| O=C(/C=C/c1ccc(O[C@@H]2O[C@H](CO)[C@H](O)[C@H](O)[C@H]2O)cc1)Nc1ccc(OCCOc2ccc(NC(=O)/C=C/c3ccc(O[C@@H]4O[C@H](CO)[C@H](O)[C@H](O)[C@H]4O)cc3)cc2)cc1 [Compound D1] | 22.4 | 3.73 | 3 | 0.006 |
| O=C(CCc1ccc(O[C@@H]2O[C@H](CO)[C@H](O)[C@H](O)[C@H]2O)cc1)Nc1ccc(OCCOc2ccc(NC(=O)CCc3ccc(O[C@@H]4O[C@H](CO)[C@H](O)[C@H](O)[C@H]4O)cc3)cc2)cc1 [Compound D2] | 29.6 | 2.21 | 3.04 | – |
| O=C(CCc1ccc(O[C@@H]2O[C@H](CO)[C@H](O)[C@H](O)[C@H]2O)cc1)Nc1ccc(CCc2ccc(NC(=O)CCc3ccc(O[C@@H]4O[C@H](CO)[C@H](O)[C@H](O)[C@H]4O)cc3)cc2S(=O)(=O)O)c(S(=O)(=O)O)c1 [Compound L2] | 29.5 | > 4 | > 4 | 0.86 |
| O=C(/C=C/c1ccc(O[C@@H]2O[C@H](CO)[C@H](O)[C@H](O)[C@H]2O)cc1)Nc1ccc(OCCOc2ccc(NC(=O)/C=C/c3ccc(O[C@@H]4O[C@H](CO)[C@H](O)[C@H](O)[C@H]4O)cc3)cn2)nc1 [Compound H1] | 17.5 | > 4 | > 3 | – |
